The text below walks through data of US20240279218A1 (Hoffmann-La Roche Inc., priority 2016, published 2024).

The target of test [1] is T1, h-GABA-A α5β3γ2 (Homo sapiens (Human), UniProt P18507+P31644). As to the kind of experiment: Two-electrode voltage clamp electrophysiology in Xenopus oocytes expressing GABAA receptors, modulation of GABA EC20 current. Format: cell-based. The method in brief:
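Values are % modulation of an EC20 GABA response, derived point by point from the ratio of compound-exposed versus control current traces (extremum taken, 100×(fold−1)). Recordings used oocytes injected with human α5, β3, γ2 mRNA, clamped at −80 mV at room temperature, at least 3 oocytes each.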

Test [2] deals with T1, h-GABA-A α5β3γ2. The experiment in a line: [3H]flumazenil competition binding assay, membranes of HEK293 cells expressing human GABAA receptors. In a few lines: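 Membranes were prepared from HEK293 cells with transient human α5β3γ2 expression and assayed in Krebs-tris, pH 7.5. Bound radioactivity measured on filters by liquid scintillation.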
Setting [3] is: % modulation of GABA EC20 = 100*(Fold increase−1), Xenopus oocytes.
The mark [4] stands for this setting: Xenopus oocytes, GABA EC20, test compound at approx. 30 fold its Ki.
[5] abbreviates: displacement of [3H]flumazenil 0.5 nM, HEK293 cells expressing human receptors, mean of two determinations, read-out: Ki h-GABA-A α5β3γ2.

Read-outs that look alike come from different tables or passages of the source.

As for `Cc1ccc(-c2noc(C)c2COc2ccc(C(=O)NCC3CC3)nn2)cn1` [Example 31, N-(cyclopropylmethyl)-6-((5-methyl-3-(6-methylpyridin-3-yl)isoxazol-4-yl)methoxy)pyridazine-3-carboxamide], the “Efficacy (GABA) %” value in test [1] (setting [3]) is on record as 102%. The “Fold increase h-GABA-A α5β3γ2 oocyte” value in test [1] (setting [4]) is 2.02. In test [2] (setting [5]), the Ki is 0.0142 µM.

With `Cc1ccc(-c2noc(C)c2COc2ccc(C(=O)NC(C)(C)C(F)(F)F)nn2)cn1` [Example 64, 6-((5-methyl-3-(6-methylpyridin-3-yl)isoxazol-4-yl)methoxy)-N-(1,1,1-trifluoro-2-methylpropan-2-yl)pyridazine-3-carboxamide], in test [1] (setting [3]), the “Efficacy (GABA) %” value is 86%. Moreover, the “Fold increase h-GABA-A α5β3γ2 oocyte” value in test [1] (setting [4]) was 1.86. Moreover, the Ki in test [2] (setting [5]) stood at 0.0176 µM.

For the compound `Cc1ccc(-c2noc(C)c2COc2cc3c(cn2)C(=O)N(C)C3)cn1` [Example 10, 2-methyl-6-((5-methyl-3-(6-methylpyridin-3-yl)isoxazol-4-yl)methoxy)-1H-pyrrolo[3,4-c]pyridin-3(2H)-one], the “Efficacy (GABA) %” value in test [1] (setting [3]) stood at 80%. In test [1] (setting [4]), the “Fold increase h-GABA-A α5β3γ2 oocyte” value came to 1.8. For the same compound, in test [2] (setting [5]), the Ki was 0.0189 µM.

For the compound `Cc1onc(-c2cccnc2)c1COc1ccc(C(=O)NC2CCOCC2)nn1` [RE-A, 6-((5-methyl-3-(3-pyridyl)isoxazol-4-yl)methoxy)-N-tetrahydropyran-4-yl-pyridazine-3-carboxamide, reference compound], in test [1] (reference compounds, % modulation of GABA EC20), the “Efficacy (GABA) %” value is reported as −3%. Moreover, in test [1] (reference compounds, GABAA α5β3γ2 overexpressing oocytes, GABA EC20), the “Fold increase h-GABA-A α5β3γ2 oocyte” value turned out to be 0.97. Besides, the Ki in test [2] (reference compounds, GABAA receptor α5β3γ2, read-out: Ki α5-human) was found to be 0.065 µM.

On to `Cc1ccc(-c2noc(C)c2COc2ccc(C(=O)NC3(C)COC3)nn2)cn1` [Example 83, 6-((5-methyl-3-(6-methylpyridin-3-yl)isoxazol-4-yl)methoxy)-N-(3-methyloxetan-3-yl)pyridazine-3-carboxamide], for which the “Efficacy (GABA) %” value in test [1] (setting [3]) is recorded as 96%. The “Fold increase h-GABA-A α5β3γ2 oocyte” value in test [1] (setting [4]) amounted to 1.96. In addition, the Ki in test [2] (setting [5]) is 0.005 µM.

As to `Cc1ccc(-c2noc(C)c2COc2cnc(C(=O)NC3COC3)cn2)cn1` [Example 77, 5-((5-methyl-3-(6-methyl-3-pyridyl)isoxazol-4-yl)methoxy)-N-(oxetan-3-yl)pyrazine-2-carboxamide], the “Efficacy (GABA) %” value in test [1] (setting [3]) amounted to 11%. The “Fold increase h-GABA-A α5β3γ2 oocyte” value in test [1] (setting [4]) amounted to 1.11. Also, the Ki in test [2] (setting [5]) came out at 0.0052 µM.

Take `Cc1ccc(-c2noc(C)c2COc2ccc(C(=O)N[C@H]3CC[C@@](C)(O)CC3)nn2)cn1` [Example 148, N-((1s,4s)-4-hydroxy-4-methylcyclohexyl)-6-((5-methyl-3-(6-methylpyridin-3-yl)isoxazol-4-yl)methoxy)pyridazine-3-carboxamide]: in test [1] (setting [3]), the “Efficacy (GABA) %” value is 77%. In test [1] (setting [4]), the “Fold increase h-GABA-A α5β3γ2 oocyte” value came to 1.77. Besides, the Ki in test [2] (setting [5]) stood at 0.0138 µM.

As to `Cc1ccc(-c2noc(C)c2COc2ccc(C(=O)N[C@@H]3CC[C@@H](OCC(F)F)C3)nn2)cn1` [Example 191, N-((1R,3R)-3-(2,2-difluoroethoxy)cyclopentyl)-6-((5-methyl-3-(6-methylpyridin-3-yl)isoxazol-4-yl)methoxy)pyridazine-3-carboxamide], in test [1] (setting [3]), the “Efficacy (GABA) %” value was 60%. The “Fold increase h-GABA-A α5β3γ2 oocyte” value in test [1] (setting [4]) is listed as 1.6. In test [2] (setting [5]), the Ki worked out at 0.0112 µM.

`Cc1ccc(-c2noc(C)c2COc2ccc(C(=O)NCC3(O)COC3)nn2)cn1` [Example 51, N-((3-hydroxyoxetan-3-yl)methyl)-6-((5-methyl-3-(6-methylpyridin-3-yl)isoxazol-4-yl)methoxy)pyridazine-3-carboxamide]: the “Efficacy (GABA) %” value in test [1] (setting [3]) is on record as 57%. Further, in test [1] (setting [4]), the “Fold increase h-GABA-A α5β3γ2 oocyte” value is given as 1.57. Further, in test [2] (setting [5]), the Ki was 0.0108 µM.

As to `Cc1ccc(-c2noc(C(F)F)c2COc2ccc(C(=O)NC3CCOCC3)cn2)cn1` [Example 126, 6-((5-(difluoromethyl)-3-(6-methyl-3-pyridyl)isoxazol-4-yl)methoxy)-N-tetrahydropyran-4-yl-pyridine-3-carboxamide], the “Efficacy (GABA) %” value in test [1] (setting [3]) is given as 49%. For the same compound, in test [1] (setting [4]), the “Fold increase h-GABA-A α5β3γ2 oocyte” value was 1.49. Also, the Ki in test [2] (setting [5]) turned out to be 0.0498 µM.

With `Cc1ccc(-c2noc(C)c2COc2ccc(C(=O)N[C@@]3(C)CCOC3)nn2)cn1` (single isomer, unassigned) [Example 81], the “Efficacy (GABA) %” value in test [1] (setting [3]) is 80%. The “Fold increase h-GABA-A α5β3γ2 oocyte” value in test [1] (setting [4]) amounted to 1.8. For the same compound, the Ki in test [2] (setting [5]) came out at 0.0104 µM.

In the case of `Cc1ccc(-c2noc(C)c2COc2ccc(C(=O)NC3CCOCC3)cn2)nn1` [Example 108, 6-((5-methyl-3-(6-methylpyridazin-3-yl)isoxazol-4-yl)methoxy)-N-tetrahydropyran-4-yl-pyridine-3-carboxamide], the “Efficacy (GABA) %” value in test [1] (setting [3]) is reported as 20%. Moreover, the “Fold increase h-GABA-A α5β3γ2 oocyte” value in test [1] (setting [4]) is listed as 1.2. The Ki in test [2] (setting [5]) turned out to be 0.0004 µM.

As to `Cc1ccc(-c2noc(C)c2COc2ccc(C(=O)NC3CC4(COC4)C3)nn2)cn1` [Example 100, 6-((5-methyl-3-(6-methylpyridin-3-yl)isoxazol-4-yl)methoxy)-N-(2-oxaspiro[3.3]heptan-6-yl)pyridazine-3-carboxamide], the “Efficacy (GABA) %” value in test [1] (setting [3]) was 70%. In addition, the “Fold increase h-GABA-A α5β3γ2 oocyte” value in test [1] (setting [4]) amounted to 1.7. The inhibition constant Ki in test [2] (setting [5]) was found to be 0.0085 µM.

In the case of `Cc1ccc(-c2noc(C)c2COc2cc3c(cn2)C(=O)N(C2CCS(=O)(=O)CC2)C3)cn1` [Example 91, 2-(1,1-dioxothian-4-yl)-6-((5-methyl-3-(6-methylpyridin-3-yl)-1,2-oxazol-4-yl)methoxy)-1H-pyrrolo[3,4-c]pyridin-3-one], in test [1] (setting [3]), the “Efficacy (GABA) %” value is given as 140%. In addition, in test [1] (setting [4]), the “Fold increase h-GABA-A α5β3γ2 oocyte” value is given as 2.4. Besides, the Ki in test [2] (setting [5]) was found to be 0.0055 µM.

For the compound `Cc1ccc(-c2noc(C)c2COc2ccc(C(=O)N[C@@H]3CCCC[C@H]3O)cn2)cn1` [Example 132, N-((1R,2R)-2-hydroxycyclohexyl)-6-((5-methyl-3-(6-methylpyridin-3-yl)isoxazol-4-yl)methoxy)pyridine-3-carboxamide], the “Efficacy (GABA) %” value in test [1] (setting [3]) came out at 64%. For the same compound, the “Fold increase h-GABA-A α5β3γ2 oocyte” value in test [1] (setting [4]) was 1.64. The Ki in test [2] (setting [5]) is 0.0377 µM.

As to `Cc1ccc(-c2noc(C)c2COc2ccc(C(=O)N3CC4(C3)CS(=O)(=O)C4)nn2)cn1` [Example 112, (2,2-dioxido-2-thia-6-azaspiro[3.3]heptan-6-yl)(6-((5-methyl-3-(6-methylpyridin-3-yl)isoxazol-4-yl)methoxy)pyridazin-3-yl)methanone], the “Efficacy (GABA) %” value in test [1] (setting [3]) is recorded as 43%. The “Fold increase h-GABA-A α5β3γ2 oocyte” value in test [1] (setting [4]) is reported as 1.43. In addition, the Ki in test [2] (setting [5]) was 0.0065 µM.

Turning to `Cc1ccc(-c2noc(C)c2COc2ccc(C(=O)N[C@H]3CC[C@](C)(O)CC3)nn2)cn1` [Example 146], the “Efficacy (GABA) %” value in test [1] (setting [3]) is listed as 78%. Further, the “Fold increase h-GABA-A α5β3γ2 oocyte” value in test [1] (setting [4]) was 1.78. The inhibition constant (Ki) in test [2] (setting [5]) amounted to 0.01 µM.

`Cc1ccc(-c2noc(C3CC3)c2COc2ccc(C(=O)NC3CCOCC3)nn2)cn1` [Example 183, 6-((5-cyclopropyl-3-(6-methylpyridin-3-yl)isoxazol-4-yl)methoxy)-N-(tetrahydropyran-4-yl)pyridazine-3-carboxamide]: the “Efficacy (GABA) %” value in test [1] (setting [3]) came out at 213%. In addition, in test [1] (setting [4]), the “Fold increase h-GABA-A α5β3γ2 oocyte” value was 3.13. In addition, the Ki in test [2] (setting [5]) amounted to 0.0567 µM.

With `Cc1ccc(-c2noc(CF)c2COc2ccc(C(=O)NC3CCOCC3)nn2)cn1` [Example 168, 6-((5-(fluoromethyl)-3-(6-methylpyridin-3-yl)isoxazol-4-yl)methoxy)-N-(tetrahydropyran-4-yl)pyridazine-3-carboxamide], the “Efficacy (GABA) %” value in test [1] (setting [3]) is given as 102%. Besides, the “Fold increase h-GABA-A α5β3γ2 oocyte” value in test [1] (setting [4]) came to 2.02. The Ki in test [2] (setting [5]) turned out to be 0.0324 µM.

Regarding `Cc1ccc(-c2noc(C)c2COc2ccc(C(=O)N[C@H]3CCOC3)nn2)cn1` [Example 87, (S)-6-((5-methyl-3-(6-methylpyridin-3-yl)isoxazol-4-yl)methoxy)-N-(tetrahydrofuran-3-yl)pyridazine-3-carboxamide], the “Efficacy (GABA) %” value in test [1] (setting [3]) is 80%. For the same compound, the “Fold increase h-GABA-A α5β3γ2 oocyte” value in test [1] (setting [4]) was determined as 1.8. In test [2] (setting [5]), the Ki was found to be 0.0081 µM.

In the case of `Cc1ccc(-c2noc(C)c2COc2cnc(C(=O)NCCCC(F)(F)F)cn2)cn1` [Example 115, 5-((5-methyl-3-(6-methylpyridin-3-yl)isoxazol-4-yl)methoxy)-N-(4,4,4-trifluorobutyl)pyrazine-2-carboxamide], the “Efficacy (GABA) %” value in test [1] (setting [3]) turned out to be 139%. In addition, the “Fold increase h-GABA-A α5β3γ2 oocyte” value in test [1] (setting [4]) is recorded as 2.39. Moreover, the Ki in test [2] (setting [5]) came out at 0.0516 µM.

`Cc1ccc(-c2noc(C)c2COc2ccc(C(=O)N[C@@H]3CCCC[C@H]3O)nn2)cn1` [Example 25, N-((1R,2R)-2-hydroxycyclohexyl)-6-((5-methyl-3-(6-methylpyridin-3-yl)isoxazol-4-yl)methoxy)pyridazine-3-carboxamide]: the “Efficacy (GABA) %” value in test [1] (setting [3]) is 59%. Besides, the “Fold increase h-GABA-A α5β3γ2 oocyte” value in test [1] (setting [4]) was found to be 1.59. The Ki in test [2] (setting [5]) is 0.0094 µM.

In the case of `Cc1ccc(-c2noc(C3CC3)c2COc2ccc(C(=O)NC3CCOCC3)cn2)cn1` [Example 6, 6-((5-cyclopropyl-3-(6-methyl-3-pyridyl)isoxazol-4-yl)methoxy)-N-tetrahydropyran-4-yl-pyridine-3-carboxamide], in test [1] (setting [3]), the “Efficacy (GABA) %” value is 167%. In addition, the “Fold increase h-GABA-A α5β3γ2 oocyte” value in test [1] (setting [4]) amounted to 2.67. For the same compound, the Ki in test [2] (setting [5]) amounted to 0.0541 µM.
